# According to ChEMBL document CHEMBL1201862, “PubChem BioAssay data set” (2004):
# Active and inactive are the calls of the source.
# What was measured:
# [1] = biological target: Mu-type opioid receptor (Homo sapiens, UniProt P35372); test: Counterscreen for agonists of heterodimerization of the mu 1 (OPRM1) and delta 1 (OPRD1) opioid receptors: Luminescence-based cell-based high throughput dose response assay to identify agonists of OPRM1 homodimerization.; type: functional;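 note: U2OS cells expressing OPRM1 and beta-arrestin as split beta-galactosidase partners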
# Sequence of Mu-type opioid receptor (P35372 whole entry): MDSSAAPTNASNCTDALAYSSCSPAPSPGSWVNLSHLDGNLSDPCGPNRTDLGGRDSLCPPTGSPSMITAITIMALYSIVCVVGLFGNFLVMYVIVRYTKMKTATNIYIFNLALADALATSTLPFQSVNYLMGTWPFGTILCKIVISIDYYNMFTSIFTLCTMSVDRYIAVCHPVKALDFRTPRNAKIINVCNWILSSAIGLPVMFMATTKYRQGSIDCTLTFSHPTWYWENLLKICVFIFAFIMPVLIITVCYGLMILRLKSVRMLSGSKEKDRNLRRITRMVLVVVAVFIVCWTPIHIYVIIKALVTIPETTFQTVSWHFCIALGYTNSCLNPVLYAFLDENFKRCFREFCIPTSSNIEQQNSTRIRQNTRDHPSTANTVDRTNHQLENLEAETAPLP
# [2] = biological target: Delta-type opioid receptor (Homo sapiens, UniProt P41143); test: Counterscreen for agonists of heterodimerization of the mu 1 (OPRM1) and delta 1 (OPRD1) opioid receptors: Luminescence-based cell-based high throughput dose response assay to identify agonists of OPRD1 homodimerization. [Related pubchem assays (depositor defined):AID504326, AID504355, AID504692, AID504904, AID504905]; type: functional
# Sequence of Delta-type opioid receptor (P41143 whole entry): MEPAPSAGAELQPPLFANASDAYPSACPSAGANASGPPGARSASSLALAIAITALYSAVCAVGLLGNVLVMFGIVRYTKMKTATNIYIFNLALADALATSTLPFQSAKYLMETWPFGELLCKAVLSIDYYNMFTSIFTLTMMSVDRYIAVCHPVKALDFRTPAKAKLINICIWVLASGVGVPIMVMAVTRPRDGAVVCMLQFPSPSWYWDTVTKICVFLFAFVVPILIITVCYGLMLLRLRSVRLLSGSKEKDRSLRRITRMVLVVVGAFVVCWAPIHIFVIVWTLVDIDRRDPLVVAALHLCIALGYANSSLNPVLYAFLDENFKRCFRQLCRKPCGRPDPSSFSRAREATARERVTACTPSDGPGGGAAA
# [3] = biological target: 5-hydroxytryptamine receptor 5A (Homo sapiens, UniProt P47898); test: Counterscreen for agonists of OPRM1-OPRD1 heterodimerization: luminescence-based cell-based high throughput dose response assay to identify agonists of 5-hydroxytryptamine (serotonin) 5A receptor (HTR5A). [Related pubchem assays (depositor defined):AID504326, AID504355, AID504692, AID504904, AID504905]; type: functional
# Sequence of 5-hydroxytryptamine receptor 5A (P47898 whole entry): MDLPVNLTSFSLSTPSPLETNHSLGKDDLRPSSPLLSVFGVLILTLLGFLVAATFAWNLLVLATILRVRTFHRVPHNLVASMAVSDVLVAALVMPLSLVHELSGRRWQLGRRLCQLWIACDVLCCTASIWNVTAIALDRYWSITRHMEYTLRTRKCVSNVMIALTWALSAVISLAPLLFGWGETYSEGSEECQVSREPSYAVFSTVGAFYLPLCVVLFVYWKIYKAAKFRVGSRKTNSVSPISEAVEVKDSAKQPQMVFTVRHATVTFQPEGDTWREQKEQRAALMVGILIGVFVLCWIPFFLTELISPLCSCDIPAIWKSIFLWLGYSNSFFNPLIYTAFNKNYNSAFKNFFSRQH
# [4] = biological target: T1, Melanocortin receptor 4 (Homo sapiens, UniProt P32245); type: functional, cell-based;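 note: Cell-based assay with luminescence read-out, confirmatory dose-response testing for agonist activity of biased ligands at MC4R; human U2OS cells with tagged receptor and beta-arrestin; potency of agonists that increase receptor coupling to beta-arrestin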
# T1 sequence (P32245 whole entry): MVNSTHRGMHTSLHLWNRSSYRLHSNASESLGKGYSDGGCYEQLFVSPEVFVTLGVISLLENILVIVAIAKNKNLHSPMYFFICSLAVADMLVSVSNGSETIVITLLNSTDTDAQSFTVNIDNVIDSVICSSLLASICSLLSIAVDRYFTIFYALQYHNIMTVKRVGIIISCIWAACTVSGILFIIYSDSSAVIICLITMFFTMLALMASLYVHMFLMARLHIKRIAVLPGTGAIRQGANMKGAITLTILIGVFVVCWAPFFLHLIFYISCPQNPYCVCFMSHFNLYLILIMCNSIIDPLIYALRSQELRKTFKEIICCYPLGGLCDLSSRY
# [5] = biological target: T2, Latent membrane protein 1 (Human herpesvirus 4 (strain B95-8), UniProt P03230); test: LMP1 TES1 pathway selectivity over dsRED control – imaging, HEK293T, dual-color eGFP/dsRED, cherry-picks, selectivity assay for LMP1 NF-kB inhibitor project, dose response (AID 588398); type: functional, cell-based
# T2 sequence (P03230 whole entry): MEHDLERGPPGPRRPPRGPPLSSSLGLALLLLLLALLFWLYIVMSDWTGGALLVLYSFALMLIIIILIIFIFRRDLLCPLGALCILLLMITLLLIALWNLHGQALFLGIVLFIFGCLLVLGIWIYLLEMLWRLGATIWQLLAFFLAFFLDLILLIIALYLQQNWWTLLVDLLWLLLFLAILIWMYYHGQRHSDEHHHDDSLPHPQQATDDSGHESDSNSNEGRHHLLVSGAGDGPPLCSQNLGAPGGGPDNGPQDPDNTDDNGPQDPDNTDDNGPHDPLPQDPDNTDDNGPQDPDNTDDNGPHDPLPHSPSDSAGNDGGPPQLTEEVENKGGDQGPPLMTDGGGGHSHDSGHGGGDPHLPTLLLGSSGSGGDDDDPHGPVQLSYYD
# [6] = system: HEK293; test: EBV LMP1 TES2 canonical NF-kB signalling blockers – cell-based, HEK293, luciferase, cherry-pick, dose response (AID 588343); type: functional; settings: Homo sapiens
# [7] = DRD fibroblast viability loss – cell-based, non-viral oncogenic, luminescence, dose response (AID 1934); type: functional; settings: Homo sapiens
# [8] = system: BJ; test: cells; type: functional, cell-based; settings: Homo sapiens
# [9] = system: BJ; test: BJ-TERT-LT-ST fibroblast viability loss – cell-based, RAS-independent, luminescence, dose response (AID 1935); type: functional; settings: Homo sapiens;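 note: BJ fibroblasts immortalized with TERT plus LT and ST oncogenes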
# [10] = system: BJ; test: BJ-TERT fibroblast viability loss – cell-based, RAS-independent, luminescence, dose response (AID 1933); type: functional; settings: Homo sapiens
# [11] = biological target: T1, Melanocortin receptor 4; test: inhibitors of MC4R cAMP signaling – cell-based, TR-FRET, biased antagonists, dose response (AID 602298); type: functional;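 note: antagonist potency against agonist-stimulated cAMP production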
# [12] = cAMP pathway inhibition in counterscreen cell line – TR-FRET cAMP detection, counter-screen for MC4R biased antagonist project, dose response (AID 602305); type: functional, cell-based;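 note: U2OS cells stimulated with forskolin near its EC80 as the cAMP inducer; potency is for inhibition of forskolin-stimulated cAMP signaling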
# [13] = biological target: T3, Exodeoxyribonuclease V (Escherichia coli (strain K12), UniProt P04993+P07648+P08394); test: RecBCD inhibition via phage-restricted bacterial growth – absorbance, V66 E. coli, mutant T4 phage, counter-screen for AddAB inhibitor project, dose response (AID 492957); type: functional, cell-based, Escherichia coli str. K-12 substr. MG1655
# T3 sequence (P04993 whole entry): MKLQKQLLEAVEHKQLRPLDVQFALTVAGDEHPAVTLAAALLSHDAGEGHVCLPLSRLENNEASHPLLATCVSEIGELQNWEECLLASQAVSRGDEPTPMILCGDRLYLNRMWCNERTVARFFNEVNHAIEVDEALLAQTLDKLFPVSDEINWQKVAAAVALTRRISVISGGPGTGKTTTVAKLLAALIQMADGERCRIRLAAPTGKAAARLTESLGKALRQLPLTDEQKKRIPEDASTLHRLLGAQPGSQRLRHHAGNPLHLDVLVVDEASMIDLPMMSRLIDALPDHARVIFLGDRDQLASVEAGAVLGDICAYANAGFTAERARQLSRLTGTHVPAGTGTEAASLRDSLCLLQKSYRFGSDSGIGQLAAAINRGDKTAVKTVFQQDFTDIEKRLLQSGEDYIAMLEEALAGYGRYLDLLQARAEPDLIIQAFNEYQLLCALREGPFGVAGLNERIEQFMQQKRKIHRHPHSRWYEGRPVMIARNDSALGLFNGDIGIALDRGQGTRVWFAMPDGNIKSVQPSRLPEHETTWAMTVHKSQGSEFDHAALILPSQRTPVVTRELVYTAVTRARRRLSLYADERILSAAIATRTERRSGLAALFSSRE
# T3 sequence (P07648 whole entry): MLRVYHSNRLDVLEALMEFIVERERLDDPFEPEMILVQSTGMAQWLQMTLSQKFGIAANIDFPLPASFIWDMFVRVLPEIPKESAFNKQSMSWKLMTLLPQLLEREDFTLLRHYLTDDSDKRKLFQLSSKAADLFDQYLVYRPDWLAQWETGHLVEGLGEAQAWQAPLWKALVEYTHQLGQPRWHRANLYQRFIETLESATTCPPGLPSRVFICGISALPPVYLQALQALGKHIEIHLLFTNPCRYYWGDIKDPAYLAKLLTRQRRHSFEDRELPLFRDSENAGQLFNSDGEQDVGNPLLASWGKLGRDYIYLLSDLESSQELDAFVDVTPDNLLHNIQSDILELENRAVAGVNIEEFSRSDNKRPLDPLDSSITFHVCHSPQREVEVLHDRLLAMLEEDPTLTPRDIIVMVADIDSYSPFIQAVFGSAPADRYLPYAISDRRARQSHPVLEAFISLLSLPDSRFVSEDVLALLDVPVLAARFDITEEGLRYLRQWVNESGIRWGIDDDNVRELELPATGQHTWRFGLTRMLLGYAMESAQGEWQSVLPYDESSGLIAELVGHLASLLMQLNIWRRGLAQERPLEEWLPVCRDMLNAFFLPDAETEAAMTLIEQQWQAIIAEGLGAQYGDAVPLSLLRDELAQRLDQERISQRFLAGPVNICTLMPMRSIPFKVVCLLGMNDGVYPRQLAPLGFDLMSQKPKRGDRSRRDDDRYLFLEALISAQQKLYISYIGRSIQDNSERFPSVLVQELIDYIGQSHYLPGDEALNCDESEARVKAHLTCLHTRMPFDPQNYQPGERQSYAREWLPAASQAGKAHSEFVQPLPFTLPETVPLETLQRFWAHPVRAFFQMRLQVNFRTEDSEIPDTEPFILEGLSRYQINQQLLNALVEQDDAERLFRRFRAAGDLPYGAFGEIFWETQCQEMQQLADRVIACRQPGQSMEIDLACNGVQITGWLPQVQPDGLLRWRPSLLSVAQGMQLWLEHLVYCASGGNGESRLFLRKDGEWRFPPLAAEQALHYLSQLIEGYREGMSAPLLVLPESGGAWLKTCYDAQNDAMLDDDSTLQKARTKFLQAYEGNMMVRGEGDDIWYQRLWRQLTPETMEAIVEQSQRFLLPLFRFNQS
# T3 sequence (P08394 whole entry): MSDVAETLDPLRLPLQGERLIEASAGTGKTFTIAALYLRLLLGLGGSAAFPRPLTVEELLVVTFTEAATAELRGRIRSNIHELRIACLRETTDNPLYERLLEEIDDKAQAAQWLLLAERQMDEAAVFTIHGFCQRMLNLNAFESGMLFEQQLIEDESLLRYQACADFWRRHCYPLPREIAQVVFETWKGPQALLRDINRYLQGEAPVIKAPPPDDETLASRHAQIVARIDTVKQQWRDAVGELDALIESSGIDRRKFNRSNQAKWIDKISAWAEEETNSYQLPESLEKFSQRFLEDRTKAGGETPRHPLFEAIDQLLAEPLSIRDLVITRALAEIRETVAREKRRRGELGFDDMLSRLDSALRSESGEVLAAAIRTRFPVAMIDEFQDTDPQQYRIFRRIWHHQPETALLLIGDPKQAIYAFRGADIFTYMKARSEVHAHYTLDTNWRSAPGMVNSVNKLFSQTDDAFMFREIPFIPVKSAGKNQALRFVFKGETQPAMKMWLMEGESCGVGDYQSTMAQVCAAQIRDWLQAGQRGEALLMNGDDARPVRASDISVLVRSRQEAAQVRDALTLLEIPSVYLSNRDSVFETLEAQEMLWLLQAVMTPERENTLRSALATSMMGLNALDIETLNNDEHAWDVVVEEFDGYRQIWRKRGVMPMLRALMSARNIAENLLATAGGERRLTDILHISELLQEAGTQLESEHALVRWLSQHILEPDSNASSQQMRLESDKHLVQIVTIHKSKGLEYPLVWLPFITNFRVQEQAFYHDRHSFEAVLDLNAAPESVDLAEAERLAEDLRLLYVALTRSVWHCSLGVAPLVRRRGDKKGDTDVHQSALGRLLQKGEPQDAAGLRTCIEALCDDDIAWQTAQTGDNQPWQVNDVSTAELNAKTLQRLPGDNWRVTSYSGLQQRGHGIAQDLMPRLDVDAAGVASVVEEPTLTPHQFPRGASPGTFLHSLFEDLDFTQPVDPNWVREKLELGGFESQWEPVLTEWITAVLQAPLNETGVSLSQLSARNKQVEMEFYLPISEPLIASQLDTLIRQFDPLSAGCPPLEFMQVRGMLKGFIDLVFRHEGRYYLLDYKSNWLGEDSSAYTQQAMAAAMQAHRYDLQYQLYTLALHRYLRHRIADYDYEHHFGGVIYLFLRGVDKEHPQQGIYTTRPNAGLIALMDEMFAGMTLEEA
# [14] = Counterscreen for AddAB inhibitors: absorbance-based bacterial cell-based high throughput dose response assay for inhibitors of bacterial viability. [Related pubchem assays (depositor defined):AID435030, AID449728, AID449731, AID488942, AID488955, AID488956]; type: functional
# [15] = biological target: T4, Interleukin-8 (Homo sapiens, UniProt P10145); test: Dose Response confirmation of uHTS small molecule hits for cystic fibrosis induced NFkb Inhibitors in a TNFa-induced IL8 counterscreen.; type: functional; settings: read-out: IC50_Mean
# T4 sequence (P10145 whole entry): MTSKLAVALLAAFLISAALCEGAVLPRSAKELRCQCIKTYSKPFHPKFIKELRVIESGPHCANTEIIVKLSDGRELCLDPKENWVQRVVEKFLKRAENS
# [16] = biological target: T5, Polyadenylate-binding protein 1 (Homo sapiens, UniProt P11940); test: MLLE binding blockers, Cy5 peptide tracer – biochemical, fluorescence polarization, Cy5-PAM2 peptide, secondary, miRNA deadenylation inhibitor project, dose response (AID 602260); type: functional; settings: read-out: IC50_Mean
# T5 sequence (P11940 whole entry): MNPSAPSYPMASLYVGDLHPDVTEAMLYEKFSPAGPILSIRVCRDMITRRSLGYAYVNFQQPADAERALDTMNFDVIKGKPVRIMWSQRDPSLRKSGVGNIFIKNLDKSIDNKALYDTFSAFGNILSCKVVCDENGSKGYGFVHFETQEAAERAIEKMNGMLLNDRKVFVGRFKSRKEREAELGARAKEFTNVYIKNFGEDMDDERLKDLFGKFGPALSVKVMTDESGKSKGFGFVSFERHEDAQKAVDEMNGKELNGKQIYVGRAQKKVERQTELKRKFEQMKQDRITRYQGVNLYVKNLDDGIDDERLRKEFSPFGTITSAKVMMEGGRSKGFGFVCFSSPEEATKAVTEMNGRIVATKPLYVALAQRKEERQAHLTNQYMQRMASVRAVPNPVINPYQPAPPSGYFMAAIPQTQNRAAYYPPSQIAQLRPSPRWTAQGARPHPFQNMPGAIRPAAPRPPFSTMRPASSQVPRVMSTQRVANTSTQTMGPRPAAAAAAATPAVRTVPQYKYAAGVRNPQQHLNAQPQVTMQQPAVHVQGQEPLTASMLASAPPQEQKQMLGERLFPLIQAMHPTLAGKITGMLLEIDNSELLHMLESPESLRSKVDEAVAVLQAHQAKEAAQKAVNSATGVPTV
# [17] = biological target: T4, Interleukin-8; test: Dose Response confirmation of uHTS small molecule hits for cystic fibrosis induced NFkb Inhibitors in a PAF-induced IL8 counterscreen.; type: functional; settings: read-out: IC50_Mean
# [18] = biological target: T5, Polyadenylate-binding protein 1; test: MLLE domain peptide-binding blockers, IC50 – biochemical, fluorescence polarization, FITC-PAM2 peptide, dose response (AID 602259); type: functional; settings: read-out: IC50_Mean
# [19] = system: Vero; test: cells; type: functional; settings: Chlorocebus sabaeus
smiles,measurement,setting,value
CN(C)CCCN(C(=O)c1ccc(S(=O)(=O)N(C)Cc2ccccc2)cc1)c1nc2c(F)cccc2s1,EC50,[1],26.2 µM (inactive)
same,EC50,[2],> 30.8 µM (inactive)
same,EC50,[3],> 92.5 µM (inactive)
CCCCCCCCNS(=O)(=O)CCNCCc1ccccc1,EC50,[4],> 89.1 µM (inactive)
O=C1NC(c2cccc(OCc3ccccc3)c2)Nc2ccccc21 (stereo unspecified),AC50,[5],2.82 µM (active)
same,AC50,[6],84 µM (active)
CC(=O)Nc1cc(-c2cccc(F)c2)cn2c(-c3ccc(F)cc3)cnc12,EC50,[4],> 89.2 µM (inactive)
CCc1ccc2nc(N(CCCN(C)C)C(=O)c3ccc(S(=O)(=O)N(C)C4CCCCC4)cc3)sc2c1,EC50,[1],> 92.5 µM (inactive)
same,EC50,[7],7.91 µM (active)
same,EC50,[8],13.4 µM (active)
same,EC50,[9],7.58 µM (active)
same,EC50,[2],> 92.5 µM (inactive)
same,EC50,[10],6.21 µM (inconclusive)
same,EC50,[3],> 92.5 µM (inactive)
CSCCC(/C(O)=C(\C#N)c1nc2ccccc2[nH]1)N1C(=O)c2ccccc2C1=O (stereo unspecified),EC50,[1],> 92.4 µM (inactive)
same,EC50,[2],> 92.4 µM (inactive)
same,EC50,[3],> 92.4 µM (inactive)
COc1cc([N+](=O)[O-])ccc1NC(=S)NC(=O)CC(C)(C)C,IC50,[11],> 64.6 µM (inactive)
same,IC50,[12],> 64.6 µM (inactive)
CCOC(=O)c1c(NC(=O)C2c3ccccc3Oc3ccccc32)sc(C(N)=O)c1C,IC50,[11],> 21.5 µM (inactive)
same,IC50,[12],32.5 µM (inactive)
CCOc1cccc(/C=N/NC(=O)c2cc(-c3cccn3C)[nH]n2)c1O,IC50,[13],> 119 µM (inactive)
same,IC50,[14],> 119 µM (inactive)
O=S1(=O)CCC(NC(=S)SCCOc2ccccc2)C1 (stereo unspecified),IC50,[15],3.66 µM (active)
same,IC50,[16],> 66 µM (inactive)
same,IC50,[17],3.07 µM (active)
same,IC50,[18],> 66 µM (inactive)
CCOc1ccc(-c2cc(C(=O)N/N=C/c3ccc(O)cc3)c3ccccc3n2)cc1,AC50,[6],5.12 µM (active)
same,CC50,[19],14.9 µM (active)
CCN(CC)S(=O)(=O)c1ccc(N2CCOCC2)c(NC(=O)c2ccccc2F)c1,IC50,[11],> 64.6 µM (inactive)
same,IC50,[12],> 64.6 µM (inactive)
